From US20160257931A1, “METHOD FOR CULTURE OF CORNEAL ENDOTHELIAL CELLS, PROCESS FOR PRODUCTION OF CORNEAL ENDOTHELIAL CELL SHEET FOR TRANSPLANTATION PURPOSES, AND CULTURE KIT FOR CORNEAL ENDOTHELIAL CELLS” (CORNEA REGENERATION INSTITUTE CO., LTD., priority 2010, published 2016)

Assays:
Format in all cases: cell-based
[1] = system: human corneal endothelial cell; experiment: Primary culture of corneal endothelial cells in the presence of ascorbyl 2-phosphate; details: for Number of obtained cells in primary culture: Asc-2P(+) 100 μg/ml in basal medium, atelocollagen-coated dish
Protocol: Sclerocorneal segments prepared from 10 examples obtained from human eyes (from 14 to 69 years old) from Rocky Mountain Lions Eye Bank in a low temperature preservation state in a preservation solution (trade name: Optisol manufactured by Chiron corporation). The segments were 6 to 8 days old after death.
The sclerocorneal segments were transferred into a 35 mm petri dish, and the endothelial face was washed with DME medium containing 15% fetal calf serum (FCS) and 2 ng/ml basic fibroblast growth factor (bFGF) (hereinafter to be indicated as the basal medium).
Using ultrafine forceps, the corneal endothelium was peeled off in a sheet with the Descemet's membrane from the corneal inner periphery to the center and transferred into a 35 mm petri dish. The Descemet's membrane segment to which the corneal endothelial cells were attached was further cut into small pieces of about 2 mm square on the petri dish, and only the Descemet's slice pieces without attachment of a parenchymal tissue in a cottony form were recovered in a low adsorption centrifugation tube (manufactured by SUMITOMO BAKELITE Co., Ltd.), and incubated in the basal medium containing 0.2% collagenase (trade name: collagenase A, collagenase activity: >0.15 U/mg, manufactured by Roche K.K.) at 37° C., 5% CO2 for 1-3 hr.
The collagenase-treated cells were diluted with the basal medium, centrifugal washing (20 g, 2 min) was repeated three times, and the cells floating in the supernatant were removed. The cells were diluted with phosphate buffered saline (PBS), and centrifugal washing (20 g, 2 min) was performed once in the same manner. 0.5% Trypsin/0.2% ethylenediamine tetraacetic acid (EDTA) was added to the precipitated cell mass, and the mixture was incubated at 37° C., 5% CO2 for 5 min. The basal medium was added and the mixture was centrifuged (500 g, 5 min) to give cell pellets. The obtained cell pellets were resuspended in the basal medium containing 100 μg/ml ascorbyl 2-phosphate (manufactured by Wako Pure Chemical Industries, Ltd.) and the comparison basal medium without containing the same. The cells were each seeded on a dish prepared by the following method, and cultured in an incubator at 37° C., 5% CO2 for 2-4 weeks while exchanging the medium every 2-3 days.
5 mg/ml Atelocollagen (bovine dermis-derived acidic collagen solution, trade name: IAC-50, manufactured by KOKEN CO., LTD) was diluted 100-fold with 10 mM acetic acid, 1 ml thereof was added to a 35 mm dish, left standing at 37° C. for 1 hr, and washed twice with PBS (2 ml) to prepare a dish coated with atelocollagen.

[2] = system: human corneal endothelial cell; experiment: Subculture of corneal endothelial cells (passage stability)
Protocol: The primary cultured cells (10 donors, 14- to 69-year-old) obtained in the above-mentioned 1 were each subcultured as follows.
The primary cultured cells were washed with PBS and dispersed in 0.5% trypsin/0.2% EDTA. The basal medium was added thereto, the mixture was centrifuged (500 g, 5 min), and suspended in the basal medium containing 100 μg/ml ascorbyl 2-phosphate and comparison basal medium without containing the same. The cells were seeded at 1000 cells/cm^2 on a dish coated with atelocollagen, which was prepared in the same manner as in the above-mentioned 1, and cultured at 37° C., 5% CO2. When the cells reached confluence, a similar passage operation was repeated.

[3] = system: human corneal endothelial cell; experiment: Comparison with the conventional culture method on bovine corneal endothelial cell-producing extracellular substrate; details: FIG. 3
From the text: According to a conventionally-known method (Miyata K, Drake J, Osakabe Y, Hosokawa Y, Hwang D, Soya K, Oshika T, Amano S. Cornea. 2001 20:59-63), a human corneal endothelial cell was isolated and cultured. The method is briefly described in the following. The cornea was transferred into a 35 mm petri dish, and the endothelial face was washed with the basal medium. Using ultrafine forceps, the corneal endothelium was peeled off in a sheet with Descemet's membrane from the corneal inner periphery to the center, and transferred into a 35 mm petri dish. The Descemet's membrane was further cut into small slice pieces of about 2 mm square on the petri dish, and placed with the endothelial surface facing downward on a dish coated with an extracellular substrate produced by corneal endothelial cells of a fetal calf. The dish was carefully moved into an incubator at 37° C., 5% CO2, and cultured for 2-3 weeks while exchanging the medium every 2-3 days.
In any passage, more cells were obtained in the ascorbyl 2-phosphate addition group, and the total cell number reached after completion of the three passage operations was higher when cultured in the basal medium containing ascorbyl 2-phosphate.

O=C1O[C@H]([C@@H](O)CO)C(O)=C1OP(=O)(O)O [Asc-2P, ascorbyl 2-phosphate]
Number of obtained cells in primary culture ([1]; donor No. 1, 27 days of culture): 59 ×10e4 cells
Number of obtained cells in primary culture ([1]; donor No. 2, 21 days of culture): 32 ×10e4 cells
Number of obtained cells in primary culture ([1]; donor No. 3, 21 days of culture): 35 ×10e4 cells
Number of obtained cells in primary culture ([1]; donor No. 4, 22 days of culture): 39 ×10e4 cells
Number of obtained cells in primary culture ([1]; donor No. 5, 26 days of culture): 66 ×10e4 cells
Number of obtained cells in primary culture ([1]; donor No. 6, 22 days of culture): 27 ×10e4 cells
Number of obtained cells in primary culture ([1]; donor No. 7, 26 days of culture): 60 ×10e4 cells
Number of obtained cells in primary culture ([1]; donor No. 8, 23 days of culture): 308 ×10e4 cells
Number of obtained cells in primary culture ([1]; donor No. 9, 24 days of culture): 405 ×10e4 cells
Number of obtained cells in primary culture ([1]; donor No. 10, 29 days of culture): 20 ×10e4 cells
Number of corneal endothelial cells on completion of the primary culture, versus no addition ([1]; all 10 donors (14 to 69 years old), 100 μg/ml): strikingly increased
Cell form in primary culture ([1]; donor Nos. 5 and 7, basal medium containing ascorbyl 2-phosphate): flagstone-like cell images on the entire face of the culture dish
Number of cells obtained on completion of the subculture, versus no addition ([2]; all 10 cases, 100 μg/ml, seeded at 1000 cells/cm^2, repeated subculture): higher
Number of cells obtained on repeated subculture, addition group versus non-addition group ([2]; donor No. 8, FIG. 2 (a), (b)): higher
Cell form on completion of 6 passages ([2]; donor No. 8, FIG. 2 (c)): maintained a flagstone-like form
Proliferation efficiency versus conventional method [3]: higher proliferation efficiency
Total cell number reached after completion of the three passage operations, versus conventional method ([3]; atelocollagen plus ascorbyl 2-phosphate versus bovine corneal endothelial cell-producing extracellular substrate): higher
